# Tested on: induced human hepatic stem cells (AFB1-1, NGC1-2)
# Test: Long-term passage culture of induced human hepatic stem cells
# Type: cell-based
# Conditions: addition of 0.05-0.5 μM to the medium, passage culture for six months or longer
# Description: Induced human hepatic stem cells (AFB1-1, NGC1-2) were subjected to passage culture for six months or longer. The exemplary medium used includes mTeSR1 (STEMCELL Technologies/VERITAS), a bFGF-supplemented medium for primate ES/iPS cells (ReproCELL), or bFGF-supplemented ReproStem (ReproCELL). In the case of using MEFs, a collagen- or gelatin-coated culture dish was used, and in the case of not using MEFs, a matrigel-coated culture dish was used.
smiles,measurement,value
Cc1cccc(-c2nn(C(=S)Nc3ccccc3)cc2-c2ccnc3ccccc23)n1 [A-83-01],proliferation rate and morphology,highly satisfactory proliferation rate and morphology
same,self-replication of induced human hepatic stem cells,useful for self-replication of induced human hepatic stem cells
